Assay results published in ChEMBL document CHEMBL3994562 (Medchemcomm, 2016).
In brackets after ≈: the same amount, converted by molar mass.

Legend:
MCF7 [1] = assay: Antiproliferative activity in human MCF7 cells after 72 hrs by MTT assay; type: functional, cell-based; conditions: MCF7, 72 h
HCT-116 [2] = assay: Antiproliferative activity in human HCT116 cells after 72 hrs by MTT assay; type: functional, cell-based; conditions: HCT-116, 72 h
HepG2 [3] = assay: Antiproliferative activity in human HepG2 cells after 72 hrs by MTT assay; type: functional, cell-based; conditions: HepG2, 72 h
[4] = Aqueous solubility of the compound in water after 48 hrs by UV spectrophotometer; type: physicochemical
A549 [5] = assay: Antiproliferative activity in human A549 cells after 72 hrs by MTT assay; type: functional, cell-based; conditions: A549, 72 h
Bel-7402 [6] = assay: Antiproliferative activity in human Bel7402 cells after 72 hrs by MTT assay; type: functional, cell-based; conditions: Bel-7402, 72 h
HCT-116 [7] = assay: Potency index, ratio of 5-FU IC50 to compound IC50 for human HCT116 cells; type: functional
Bel-7402 [8] = assay: Antiproliferative activity in 5-FU resistant human Bel7402 cells after 72 hrs by MTT assay; type: functional, cell-based; conditions: Bel-7402, 72 h
HepG2 [9] = assay: Potency index, ratio of 5-FU IC50 to compound IC50 for human HepG2 cells; type: functional
HCT-116 [10] = assay: Cell cycle arrest in human HCT116 cells assessed as accumulation at G2/M phase after 24 hrs by propidium iodide staining-based flow cytometric analysis; type: functional
HCT-116 [11] = assay: Induction of apoptosis in human HCT116 cells after 48 hrs by annexin V-FITC/propidium iodide staining-based flow cytometric method; type: functional, cell-based
HCT-116 [12] = assay: Cell cycle arrest in human HCT116 cells assessed as decrease in cell population at G0/G1 phase after 24 hrs by propidium iodide staining-based flow cytometric analysis; type: functional
HCT-116 [13] = assay: Induction of apoptosis in human HCT116 cells assessed as downregulation of CDK1 protein level after 24 hrs by Western blot method; type: functional, cell-based
HCT-116 [14] = assay: Induction of apoptosis in human HCT116 cells assessed as downregulation of cyclin B protein level after 24 hrs by Western blot method; type: functional, cell-based
HCT-116 [15] = assay: Induction of apoptosis in human HCT116 cells at 4 uM after 48 hrs by annexin V-FITC/propidium iodide staining-based flow cytometric method; type: functional
Bel-7402 [16] = assay: Antiproliferative activity against human Bel7402 cells after 24 to 72 hrs by MTT assay; type: functional, cell-based
SCC-4 = assay: Antiproliferative activity against human SCC4 cells; type: functional, cell-based
HL-60 = assay: Antiproliferative activity against human HL60 cells; type: functional, cell-based
MCF7 [17] = assay: Antiproliferative activity against human MCF7 cells; type: functional, cell-based
A549 [18] = assay: Antiproliferative activity against human A549 cells
SGC-7901 = assay: Antiproliferative activity against human SGC7901 cells after 24 to 72 hrs by MTT assay; type: functional, cell-based
[19] = Antiproliferative activity against human nasopharyngeal carcinoma cells; type: functional, cell-based; conditions: Nasopharyngeal carcinoma cell
HepG2 [20] = assay: Antiproliferative activity against human HepG2 cells

Row | SMILES | IC50 (MCF7 [1]) [µM] | IC50 (HCT-116 [2]) [µM] | IC50 (HepG2 [3]) [µM] | solubility at 48 h [4] [mg/mL] | IC50 (A549 [5]) [µM] | also measured
1 | Cl.O=C(OCCCCN1CCCCC1)c1cc(O)c2c(c1)C(=O)c1cccc(O)c1C2=O | 28.9 | 2.03 | 0.89 | 10.7 | 26.4 | 
2 | Cl.O=C(OCCCCCCN1CCCCC1)c1cc(O)c2c(c1)C(=O)c1cccc(O)c1C2=O | 5.92 | 0.48 | 0.52 | 11 | 3.01 | IC50 (Bel-7402 [6]): 3.95 µM; Ratio IC50 (HCT-116 [7]): 5 - 18; IC50 (Bel-7402 [8]): 5.95 µM; Ratio IC50 (HepG2 [9]): 5 - 18
3 | Cl.Cl.O=C(OCCCN1CCN(CCO)CC1)c1cc(O)c2c(c1)C(=O)c1cccc(O)c1C2=O | 8.86 | 0.71 | 4.02 | 12.2 | 7.11 | 
4 | Cl.O=C(OCCCN1CCCCC1)c1cc(O)c2c(c1)C(=O)c1cccc(O)c1C2=O | 7.74 | 0.77 | 3.44 | 11.3 | 5.41 | 
5 | CN1CCN(CCCCOC(=O)c2cc(O)c3c(c2)C(=O)c2cccc(O)c2C3=O)CC1.Cl.Cl | 6.63 | 2.93 | 3.32 | 14.8 | 2.9 | 
6 | CCN(CC)CCCCCOC(=O)c1cc(O)c2c(c1)C(=O)c1cccc(O)c1C2=O.Cl | 15.2 | 9.05 | 12.2 | 12.4 | 27.3 | 
7 | Cl.O=C(OCCCCCN1CCOCC1)c1cc(O)c2c(c1)C(=O)c1cccc(O)c1C2=O | 9.85 | 8.73 | 6.03 | 12.3 | 10.8 | 
8 | CCN1CCN(CCCOC(=O)c2cc(O)c3c(c2)C(=O)c2cccc(O)c2C3=O)CC1.Cl.Cl | 3.59 | 3.97 | 1.36 | 10.1 | 7.62 | 
9 | CN1CCN(CCCCCCOC(=O)c2cc(O)c3c(c2)C(=O)c2cccc(O)c2C3=O)CC1.Cl.Cl | 5.05 | 0.76 | 0.42 | 12.9 | 3.39 | 
10 | Cl.O=C(OCCCN1CCOCC1)c1cc(O)c2c(c1)C(=O)c1cccc(O)c1C2=O | 27.3 | 4.92 | 1.81 | 12.1 | 24.9 | 
11 | Cl.O=C(OCCCCCCN1CCOCC1)c1cc(O)c2c(c1)C(=O)c1cccc(O)c1C2=O | 27.5 | 3.26 | 0.79 | 12.8 | 25.4 | 
12 | Cl.Cl.O=C(OCCCCN1CCN(CCO)CC1)c1cc(O)c2c(c1)C(=O)c1cccc(O)c1C2=O | 4 | 0.85 | 3.65 | 12 | 2.5 | 
13 | CCN(CC)CCCCOC(=O)c1cc(O)c2c(c1)C(=O)c1cccc(O)c1C2=O.Cl | 5.36 | 1.81 | 1.34 | 13 | 3.86 | 
14 | Cl.Cl.O=C(OCCCCCCN1CCN(CCO)CC1)c1cc(O)c2c(c1)C(=O)c1cccc(O)c1C2=O | 7.63 | 0.31 | 0.85 | 15.1 | 5.28 | IC50 (Bel-7402 [6]): 2.36 µM; Activity (HCT-116 [10]): Dose-dependent effect; Ratio IC50 (HCT-116 [7]): 5 - 18; Activity (HCT-116 [11]): Dose-dependent effect; IC50 (Bel-7402 [8]): 4.48 µM; Activity (HCT-116 [12]): Dose-dependent effect; Activity (HCT-116 [13]): Dose-dependent effect; Ratio IC50 (HepG2 [9]): 5 - 18; Activity (HCT-116 [14]): Dose-dependent effect; Activity (HCT-116 [15]): 56.08%
15 | Cl.O=C(OCCCCN1CCOCC1)c1cc(O)c2c(c1)C(=O)c1cccc(O)c1C2=O | 24.4 | 3.29 | 6.23 | 11.7 | 21.4 | 
16 | Cl.Cl.O=C(OCCCCCN1CCN(CCO)CC1)c1cc(O)c2c(c1)C(=O)c1cccc(O)c1C2=O | 0.95 | 0.55 | 2.51 | 12.2 | 5.21 | 
17 | CCN(CC)CCCCCCOC(=O)c1cc(O)c2c(c1)C(=O)c1cccc(O)c1C2=O.Cl | 7.56 | 0.83 | 0.33 | 13.8 | 4.39 | IC50 (Bel-7402 [6]): 6.49 µM; Ratio IC50 (HCT-116 [7]): 5 - 18; IC50 (Bel-7402 [8]): 7.31 µM; Ratio IC50 (HepG2 [9]): 5 - 18
18 | CCN(CC)CCCOC(=O)c1cc(O)c2c(c1)C(=O)c1cccc(O)c1C2=O.Cl | 8.28 | 0.65 | 2.94 | 13.6 | 6.23 | 
19 | CN1CCN(CCCCCOC(=O)c2cc(O)c3c(c2)C(=O)c2cccc(O)c2C3=O)CC1.Cl.Cl | 1.13 | 1.5 | 2.95 | 13.7 | 6.32 | 
20 | CCN1CCN(CCCCCOC(=O)c2cc(O)c3c(c2)C(=O)c2cccc(O)c2C3=O)CC1.Cl.Cl | 0.42 | 2.39 | 2.86 | 10 | 6.78 | 
21 | Cl.O=C(OCCCCCN1CCCCC1)c1cc(O)c2c(c1)C(=O)c1cccc(O)c1C2=O | 1.95 | 5.28 | 6.12 | 10.3 | 8.69 | 
22 | CN1CCN(CCCOC(=O)c2cc(O)c3c(c2)C(=O)c2cccc(O)c2C3=O)CC1.Cl.Cl | 11.4 | 3.75 | 4.93 | 13.3 | 8.41 | 
23 | O=C(O)c1cc(O)c2c(c1)C(=O)c1cccc(O)c1C2=O [RHEIN] | 106 | 116 | 101 | 0.0456 (≈ 160 µM) | 120 | IC50 (Bel-7402 [16]): 110 µM; IC50 (SCC-4): 58 µM; IC50 (Bel-7402 [6]): 120 µM; IC50 (HL-60): 100 µM; IC50 (Bel-7402 [8]): 136 µM; IC50 (MCF7 [17]): 130 µM; IC50 (A549 [18]): 80 µM; IC50 (SGC-7901): 150 µM; IC50 [19]: 140 µM; IC50 (HepG2 [20]): 710 µM
24 | CCN1CCN(CCCCOC(=O)c2cc(O)c3c(c2)C(=O)c2cccc(O)c2C3=O)CC1.Cl.Cl | 5.23 | 1.88 | 2.51 | 10.5 | 8.56 | 
25 | CCN1CCN(CCCCCCOC(=O)c2cc(O)c3c(c2)C(=O)c2cccc(O)c2C3=O)CC1.Cl.Cl | 3.25 | 1.93 | 1.47 | 10.2 | 6.42 | 
26 | O=c1[nH]cc(F)c(=O)[nH]1 [FLUOROURACIL] | 4.32 | 4.3 | 5.82 |  | 10.3 | IC50 (Bel-7402 [6]): 7.57 µM; IC50 (Bel-7402 [8]): 214 µM
